The text below walks through data of patent US9539275B2, “Melanogenesis effect of saponins of gynostemma pentaphyllum” (Hong Kong Baptist University, priority 2014, dated 2017).

Holding throughout (format): cell-based, Mouse
Data set [1] deals with B16 cells. Put plainly: MTT cell viability assay in B16 cells. The settings on record: H89 up to 5 μM, 48 hours. As to the method: (§1) Cell viabilities were determined using the MTT assay. Briefly, cells were seeded in 96-well plates (1×10^3 cells/well) and allowed to adhere at 37° C. for 24 hours. Various concentrations of drugs were then added. After 48 hours incubation, 20 μl of MTT solution (2.5 mg/ml in PBS) was added to each well and cells were incubated at 37° C. for 4 hours. Following medium removal, 100 μl of DMSO were added to each well and the plates were gently shaken for 5 minutes. Optical absorbance was determined at 570 nm with a microplate spectrophotometer (BD Bioscience, USA). Absorbance of cells without treatment was regarded as 100% of cell survival. Each treatment was performed in triplicate and each experiment was repeated three times.
Background: Formazan colour is commonly taken as a measure of viable cells.

Data set [2] concerns B16F10 cells. Put plainly: MTT cell viability assay in B16F10 cells. The conditions noted are these: H89 up to 5 μM, 48 hours. As for the experimental part:
as §1

The test system of data set [3] is B16 cells. Put plainly: Measurement of cellular melanin contents in B16 cells. The conditions noted are these: 5 μM H89 with GpS 50-150 μg/ml, 48 hours. As to the method:
(§2) Cells were seeded in a 60 mm dish (2×10^5 cells/dish) and allowed to adhere at 37° C. for 24 hours. After adding test samples, cells were incubated for 48 hours and then washed with PBS and lysed in 120 μl of 1 M NaOH followed by 10 minutes of heating at 100° C. to solubilize the melanin. Each lysate (100 μl) was added into a well of a 96-well microplate, and the absorbance was determined at 475 nm with a microplate spectrophotometer (BD Bioscience, USA). The protein concentration of each sample was determined by DC Protein Assay (BIO-RAD, USA). Each experiment was repeated three times. The intracellular melanin amount/protein amount was shown as percentage values. Each percentage value of the drug-treated cells was calculated with respect to that of control cells.

In data set [4] the test system is B16F10 cells. Put plainly: Measurement of cellular melanin contents in B16F10 cells. The settings on record: 5 μM H89 with GpS 50-100 μg/ml, 48 hours. As to the method: as §2
Data set [5] deals with tyrosinase. Put plainly: Tyrosinase activity assay in B16 cells. The conditions noted are these: 5 μM H89 with GpS 50-150 μg/ml, 48 hours. As to the method:
(§3) Cells were seeded in 96-well plates (3×10^3 cells/well) and allowed to adhere at 37° C. for 24 hours. Test samples were then added to individual wells. After 48 hours incubation, cells were washed with ice-cold PBS and 100 μl of 0.1% Triton X-100 lysis buffer were added into each well and lysed at −80° C. for 30 minutes. After freezing and thawing, 100 μl of freshly prepared substrate solution (0.1% L-DOPA) were added into a well on a 96-well plate. Following 2 hours incubation, the absorbance was determined at 475 nm with a microplate spectrophotometer (BD Bioscience, USA). Each percentage value of the drug-treated cells was calculated with respect to that of control cells. Each treatment was repeated three times.

Data set [6] has as its system tyrosinase. The data set is described as follows: Tyrosinase activity assay in B16F10 cells. The conditions noted are these: 5 μM H89 with GpS 50-100 μg/ml, 48 hours. As for the experimental part: as §3
For data set [7], the system named is CREB. Put plainly: Western blotting of p-CREB and CREB in B16 cells. The settings on record: 5 μM H89 in GpS-treated cells. As to the method:
(§4) Cells were collected and total protein lysates were extracted with RIPA lysis buffer [50 mM Tris-Cl, 1% v/v NP-40, 0.35% w/v sodium-deoxycholate, 150 mM NaCl, 1 mM EDTA, 1 mM EGTA, 1 mM phenylmethylsulfonyl fluoride (PMSF), 1 mM NaF, 1 mM Na3VO4, pH adjusted to 7.4] containing a protease inhibitor cocktail (Roche, Germany) for 30 minutes on ice. After centrifugation at 20,800×g for 15 minutes at 4° C., the supernatant was collected and regarded as total cell lysates.
(§5) Protein concentration was determined by DC Protein Assay (Bio Rad, USA). A standard curve was created by bovine serum albumin (BSA) concentration 0, 0.375, 0.75 and 1.5 μg/μl for the determination of the absolute protein concentration. Then, the mixture of reagent A and reagent S (50:1) was mixed with 5 μl of protein lysate. Then 200 μl of reagent B were added and mixed with 10 minutes incubation at room temperature. Finally, the absorbance was determined at 700 nm with a microplate spectrophotometer (BD Bioscience, USA). […]
(§6) Membranes were blocked for 30 minutes with 3% Bovine Serum Albumin in TBST buffer composed of 50 mM Tris (pH 7.6), 150 mM NaCl and 0.1% Tween-20 and incubated with the primary antibody overnight at 4° C. GADPH was used as loading control and was detected using an anti-GADPH polyclonal antibody (Santa cruz Biotechnology). […]
On the technique in general: A western blot detects proteins with antibodies after separation by electrophoresis.

Data set [8] has as its system CREB. Put plainly: Western blotting of p-CREB and CREB in B16F10 cells. The conditions noted are these: 5 μM H89 in GpS-treated cells. As to the method: as §4, §5, §6
Data set [9] concerns B16 cells. The data set is described as follows: Colour of culture medium (extracellular melanin) and cell pellets, B16 cells. As to the method: (§7) The PKA signaling pathway is known to take part in regulating melanogenic events. […] To further investigate the involvement of the PKA pathway in the induction of the melanogenic effect of GpS in B16 and B6F10 cells, a PKA inhibitor, H89, is employed. […] Cells are treated with GpS in the presence or absence of H89 inhibitor. […] H89 treatment effectively lightens the color of the culture medium as well as the cell pellets.

Data set [10] has as its system B16F10 cells. The data set is described as follows: Colour of culture medium (extracellular melanin) and cell pellets, B16F10 cells. As to the method: as §7
Where [11] appears, read: co-treated with 5 μM H89 and GpS, compared with GpS-treated cells.

Turning to `O=S(=O)(NCCNC/C=C/c1ccc(Br)cc1)c1cccc2cnccc12` [H89], the “cytotoxicity (MTT)” value in the data set with B16 cells [1] and with B16F10 cells [2] was “no cytotoxicity” each time. The “GpS-induced increment of melanin content” value in the data set on B16 cells [3] and with B16F10 cells [4] was “significantly attenuated” throughout. The “GpS-induced increment of cellular tyrosinase activity” value with tyrosinase [5] and in the data set on tyrosinase [6] was “significantly attenuated” in each case. The “GpS-induced p-CREB expression” value in the data set with CREB [7] and with CREB [8] was “significantly attenuates” throughout. The “total CREB expression” value in the data set on CREB [7] and in the data set on CREB [8] was “without significant influence” each time. The “colour of cell pellets” value in the data set on B16 cells [9] (setting [11]) and with B16F10 cells [10] (setting [11]) was “lighter in color” throughout. The “secretion of melanin induced by GpS” value in the data set with B16 cells [9] (co-treatment with H89) and with B16F10 cells [10] (co-treatment with H89) was “attenuated” in each case.
